Assay results: US9346809B2 (LEO PHARMA A/S, priority 2009, dated 2016)
Read-outs that look alike come from different tables or passages of the source.

Experiments:
Assay type in all cases: biochemical
[1] = biological target: T1, JAK1 (aa 850-1154, catalytic domain, GST-tag) (Homo sapiens, UniProt P23458); experiment: JAK kinase assay (HTRF, phosphorylation of TK substrate-biotin), JAK1; details: ATP at Km (7 μM)
T1 construct: JAK1 (aa 850-1154) and TYK2 (aa 871-1187) are expressed with an N-terminally fused GST-tag; GST (N); purchased Carna Biosciences, Inc; host or cells: baculovirus expression system
How it was run: (§1)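 Baculovirus-expressed catalytic domains phosphorylated 1 μM TK substrate-biotin in 50 mM Hepes pH 7.0 with ATP at Km (JAK1 7 μM, JAK2 4 μM, JAK3 2 μM, TYK2 13 μM) for 20-30 min at RT. EDTA/KF stop, streptavidin-XL665 plus cryptate antibody overnight; HTRF signal gave EC50.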

[2] = biological target: T2, JAK2 (catalytic domain, His-tag) (Homo sapiens, UniProt O60674); experiment: JAK kinase assay (HTRF, phosphorylation of TK substrate-biotin), JAK2; details: ATP at Km (4 μM)
T2 construct: All four purified enzymes contain only the catalytic domain; His (N); purchased Carna Biosciences, Inc; host or cells: baculovirus expression system
How it was run: as §1

[3] = biological target: T3, JAK3 (catalytic domain, His-tag) (Homo sapiens, UniProt P52333); experiment: JAK kinase assay (HTRF, phosphorylation of TK substrate-biotin), JAK3; details: ATP at Km (2 μM)
T3 construct: All four purified enzymes contain only the catalytic domain; His (N); purchased Carna Biosciences, Inc; host or cells: baculovirus expression system
How it was run: as §1

[4] = biological target: T4, TYK2 (aa 871-1187, catalytic domain, GST-tag) (Homo sapiens, UniProt P29597); experiment: JAK kinase assay (HTRF, phosphorylation of TK substrate-biotin), TYK2; details: ATP at Km (13 μM)
T4 construct: JAK1 (aa 850-1154) and TYK2 (aa 871-1187) are expressed with an N-terminally fused GST-tag; GST (N); purchased Carna Biosciences, Inc; host or cells: baculovirus expression system
T4 sequence (P29597 871-1187): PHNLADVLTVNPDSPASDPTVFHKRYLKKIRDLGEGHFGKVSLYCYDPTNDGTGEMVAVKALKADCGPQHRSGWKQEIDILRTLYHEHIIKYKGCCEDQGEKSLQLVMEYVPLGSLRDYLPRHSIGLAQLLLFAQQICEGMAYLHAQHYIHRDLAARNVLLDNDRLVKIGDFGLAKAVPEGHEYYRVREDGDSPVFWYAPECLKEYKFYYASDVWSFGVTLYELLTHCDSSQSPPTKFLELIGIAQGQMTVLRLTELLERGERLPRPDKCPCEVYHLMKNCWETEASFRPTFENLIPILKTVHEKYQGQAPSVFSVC
How it was run: as §1

[5] = HTRF assay, read-out: JAK1 kinase inhibitory activity (EC50 indicator)
[6] = HTRF assay, read-out: JAK2 kinase inhibitory activity (EC50 indicator)
[7] = HTRF assay, read-out: JAK3 kinase inhibitory activity (EC50 indicator)
[8] = HTRF assay, read-out: TYK2 kinase inhibitory activity (EC50 indicator)
[9] = read-out: JAK1 kinase inhibitory activity (EC50 indicator)
[10] = read-out: JAK2 kinase inhibitory activity (EC50 indicator)
[11] = read-out: JAK3 kinase inhibitory activity (EC50 indicator)
[12] = read-out: TYK2 kinase inhibitory activity (EC50 indicator)

T3 sequence (P52333 822-1111 limits assumed): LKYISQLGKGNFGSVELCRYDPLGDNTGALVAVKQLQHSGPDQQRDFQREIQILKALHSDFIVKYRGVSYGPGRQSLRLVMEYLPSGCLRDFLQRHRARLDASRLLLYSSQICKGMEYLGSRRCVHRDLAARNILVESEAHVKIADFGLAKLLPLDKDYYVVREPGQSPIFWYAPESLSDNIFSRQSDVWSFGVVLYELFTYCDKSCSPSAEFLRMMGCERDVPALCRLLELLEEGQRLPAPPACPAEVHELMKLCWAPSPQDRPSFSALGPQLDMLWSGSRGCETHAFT
T1 sequence (P23458 850-1154): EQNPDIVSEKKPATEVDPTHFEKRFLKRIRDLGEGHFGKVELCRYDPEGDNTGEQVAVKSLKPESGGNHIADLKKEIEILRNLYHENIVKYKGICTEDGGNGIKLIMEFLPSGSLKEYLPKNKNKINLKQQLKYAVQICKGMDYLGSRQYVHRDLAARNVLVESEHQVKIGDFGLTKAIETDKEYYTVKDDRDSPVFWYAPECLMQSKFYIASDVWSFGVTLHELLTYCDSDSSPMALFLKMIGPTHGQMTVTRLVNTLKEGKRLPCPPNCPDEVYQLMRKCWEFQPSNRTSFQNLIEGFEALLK
T2 sequence (O60674 849-1124 limits assumed): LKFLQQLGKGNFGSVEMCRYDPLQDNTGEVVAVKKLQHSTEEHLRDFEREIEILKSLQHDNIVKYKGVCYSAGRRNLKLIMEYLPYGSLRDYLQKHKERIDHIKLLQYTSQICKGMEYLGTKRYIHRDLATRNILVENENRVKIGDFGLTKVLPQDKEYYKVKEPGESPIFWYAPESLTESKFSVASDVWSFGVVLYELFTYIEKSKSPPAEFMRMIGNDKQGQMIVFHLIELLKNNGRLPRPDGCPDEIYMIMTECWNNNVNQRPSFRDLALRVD

| EC50 [1, 5] [nM] | EC50 [2, 6] [nM] | EC50 [3, 7] [nM] | EC50 [4, 8] [nM] | EC50 [1, 9] [nM] | EC50 [2, 10] [nM] | EC50 [3, 11] [nM] | EC50 [4, 12] [nM] | SMILES | further results |
| --- | --- | --- | --- | --- | --- | --- | --- | --- | --- |
| 100 to 500 | 100 to 500 | > 500 | > 500 | – | – | – | – | N#CCc1cccc(CC(=O)N2[C@@H]3CC[C@@H]2CN(c2ncnc4[nH]ccc24)C3)c1 [Example 346, (3-{2-Oxo-2-[3-(7H-pyrrolo[2,3-d]pyrimidin-4-yl)-3,8-diaza-bicyclo[3.2.1]oct-8-yl]-ethyl}-phenyl)-acetonitrile] | – |
| – | – | – | – | < 100 | < 100 | 100 to 500 | 100 to 500 | N#Cc1ccc(C(=O)N2CCN(c3ncnc4[nH]ccc34)CC23CC3)cc1 [Example 15, 4-[7-(7H-Pyrrolo[2,3-d]pyrimidin-4-yl)-4,7-diazaspiro[2.5]octane-4-carbonyl]benzonitrile] | – |
| – | – | – | – | < 100 | 100 to 500 | 100 to 500 | > 500 | N#CCCN1CCC(C(=O)N2CCN(c3ncnc4[nH]ccc34)CC23CC3)CC1 [Example 97, 3-{4-[7-(7H-Pyrrolo[2,3-d]pyrimidin-4-yl)-4,7-diaza-spiro[2.5]octane-4-carbonyl]-piperidin-1-yl}-propionitrile] | – |
| – | – | – | – | – | – | – | – | NS(=O)(=O)c1ccc(NCC(=O)N2CCN(c3ncnc4[nH]ccc34)CC23CC3)cc1 [Example 454, 4-{2-Oxo-2-[7-(7H-pyrrolo[2,3-d]pyrimidin-4-yl)-4,7-diaza-spiro[2.5]oct-4-yl]-ethylamino}-benzenesulfonamide] | EC50 ([1]; HTRF assay, read-out: JAK1 kinase inhibitory activity (EC50)): < 100 nM; EC50 ([2]; HTRF assay, read-out: JAK2 kinase inhibitory activity (EC50)): < 100 nM; EC50 ([3]; HTRF assay, read-out: JAK3 kinase inhibitory activity (EC50)): 100 to 500 nM; EC50 ([4]; HTRF assay, read-out: TYK2 kinase inhibitory activity (EC50)): 100 to 500 nM |
| 100 to 500 | < 100 | < 100 | 100 to 500 | – | – | – | – | O=C(c1cccc2[nH]ccc12)N1[C@@H]2CC[C@H]1CN(c1ncnc3[nH]ccc13)C2 [Example 344, (1H-Indol-4-yl)-[3-(7H-pyrrolo[2,3-d]pyrimidin-4-yl)-3,8-diaza-bicyclo[3.2.1]oct-8-yl]-methanone] | – |
| – | – | – | – | < 100 | < 100 | < 100 | > 500 | CS(=O)(=O)c1ccc(CC(=O)N2CCN(c3ncnc4[nH]ccc34)CC23CC3)cc1 [Example 107, 2-(4-Methanesulfonyl-phenyl)-1-[7-(7H-pyrrolo[2,3-d]pyrimidin-4-yl)-4,7-diaza-spiro[2.5]oct-4-yl]-ethanone] | – |
| > 500 | 100 to 500 | 100 to 500 | > 500 | – | – | – | – | COc1cnc2[nH]ccc2c1N1CCN(C(=O)c2ccccc2)C2(CC2)C1 [Example 283, [7-(5-Methoxy-1H-pyrrolo[2,3-b]pyridin-4-yl)-4,7-diaza-spiro[2.5]oct-4-yl]-phenyl-methanone] | – |
| 100 to 500 | 100 to 500 | 100 to 500 | > 500 | – | – | – | – | COc1cnc2[nH]ccc2c1N1CCN(C(=O)Cc2cccc(C#N)c2)C2(CC2)C1 [Example 294, 3-{2-[7-(5-Methoxy-1H-pyrrolo[2,3-b]pyridin-4-yl)-4,7-diaza-spiro[2.5]oct-4-yl]-2-oxo-ethyl}-benzonitrile] | – |
| – | – | – | – | < 100 | < 100 | < 100 | < 100 | NS(=O)(=O)c1ccc(C(=O)N2CCN(c3ncnc4[nH]ccc34)CC23CC3)cc1Cl [Example 103, 2-Chloro-4-[7-(7H-pyrrolo[2,3-d]pyrimidin-4-yl)-4,7-diaza-spiro[2.5]octane-4-carbonyl]-benzenesulfonamide] | – |
| – | – | – | – | > 500 | 100 to 500 | > 500 | > 500 | CN(CC#N)C(=O)C1(C(=O)N2CCN(c3ncnc4[nH]ccc34)CC23CC3)CC1 [Example 86, 1-[7-(7H-Pyrrolo[2,3-d]pyrimidin-4-yl)-4,7-diaza-spiro[2.5]octane-4-carbonyl]-cyclopropanecarboxylic acid cyanomethyl-methyl-amide] | – |
| – | – | – | – | < 100 | < 100 | 100 to 500 | > 500 | N#Cc1ccc(C(=O)C(=O)N2C3CCC2CN(c2ncnc4[nH]ccc24)C3)cc1 [Example 128, 4-{2-Oxo-2-[3-(7H-pyrrolo[2,3-d]pyrimidin-4-yl)-3,8-diaza-bicyclo[3.2.1]oct-8-yl]-acetyl}-benzonitrile] | – |
| 100 to 500 | < 100 | < 100 | > 500 | – | – | – | – | COc1cnc2[nH]ccc2c1N1CCN(C(=O)Cc2ccc(C#N)cc2)C2(CC2)C1 [Example 295, 4-{2-[7-(5-Methoxy-1H-pyrrolo[2,3-b]pyridin-4-yl)-4,7-diaza-spiro[2.5]oct-4-yl]-2-oxo-ethyl}-benzonitrile] | – |
| – | – | – | – | < 100 | < 100 | < 100 | > 500 | Cc1ccc(C(=O)N2C3CCC2CN(c2ncnc4[nH]ccc24)C3)cc1S(N)(=O)=O [Example 138, 2-Methyl-5-[3-(7H-pyrrolo[2,3-d]pyrimidin-4-yl)-3,8-diaza-bicyclo[3.2.1]octane-8-carbonyl]-benzenesulfonamide] | – |
| – | – | – | – | < 100 | < 100 | < 100 | > 500 | NS(=O)(=O)c1ccc(C(=O)N2C3CCC2CN(c2ncnc4[nH]ccc24)C3)o1 [Example 203] | – |
| < 100 | < 100 | 100 to 500 | > 500 | – | – | – | – | O=C(c1ccccc1)N1CCN(c2ccnc3[nH]ccc23)CC12CC2 [Example 221, Phenyl-[7-(1H-pyrrolo[2,3-b]pyridin-4-yl)-4,7-diaza-spiro[2.5]oct-4-yl]-methanone] | – |
| – | – | – | – | < 100 | < 100 | < 100 | 100 to 500 | O=C(c1cnccn1)N1CCN(c2ncnc3[nH]ccc23)CC12CC2 [Example 19, Pyrazin-2-yl-[7-(7H-pyrrolo[2,3-d]pyrimidin-4-yl)-4,7-diazaspiro[2.5]oct-4-yl]methanone] | – |
| – | – | – | – | < 100 | < 100 | < 100 | < 100 | NS(=O)(=O)c1ccc(/C=C/C(=O)N2CCN(c3ncnc4[nH]ccc34)CC23CC3)cc1 [Example 197, 4-{3-Oxo-3-[7-(7H-pyrrolo[2,3-d]pyrimidin-4-yl)-4,7-diaza-spiro[2.5]oct-4-0]-propenyl}-benzenesulfonamide] | – |
| < 100 | < 100 | 100 to 500 | > 500 | – | – | – | – | O=C(c1ccc2[nH]c(=O)ccc2c1)N1[C@@H]2CC[C@@H]1CN(c1ncnc3[nH]ccc13)C2 [Example 355, 6-[3-(7H-Pyrrolo[2,3-d]pyrimidin-4-yl)-3,8-diaza-bicyclo[3.2.1]octane-8-carbonyl]-1H-quinolin-2-one] | – |
| 100 to 500 | < 100 | 100 to 500 | > 500 | – | – | – | – | N#CCc1ccc(C(=O)N2CCN(c3ccnc4[nH]ccc34)CC23CC3)cc1 [Example 230, {4-[7-(1H-Pyrrolo[2,3-b]pyridin-4-yl)-4,7-diaza-spiro[2.5]octane-4-carbonyl]-phenyl}-acetonitrile] | – |
| – | – | – | – | < 100 | < 100 | < 100 | < 100 | N#Cc1csc(C(=O)N2CCN(c3ncnc4[nH]ccc34)CC23CC3)c1 [Example 60, 5-[7-(7H-Pyrrolo[2,3-d]pyrimidin-4-yl)-4,7-diaza-spiro[2.5]octane-4-carbonyl]-thiophene-3-carbonitrile] | – |
| – | – | – | – | > 500 | > 500 | > 500 | > 500 | O=C(c1cc2ccccc2s1)N1CCN(c2ncnc3[nH]ccc23)CC12CCCC2 [Example 75, Benzo[b]thiophen-2-yl-[9-(7H-pyrrolo[2,3-d]pyrimidin-4-yl)-6,9-diaza-spiro[4.5]dec-6-yl]-methanone] | – |
| < 100 | < 100 | < 100 | 100 to 500 | – | – | – | – | N#Cc1ccc(CC(=O)N2CCN(c3nc(N)nc4[nH]ccc34)CC23CC3)cc1 [Example 312, 4-{2-[7-(2-Amino-7H-pyrrolo[2,3-d]pyrimidin-4-yl)-4,7-diaza-spiro[2.5]oct-4-yl]-2-oxo-ethyl}-benzonitrile] | – |
| – | – | – | – | < 100 | < 100 | 100 to 500 | 100 to 500 | CS(=O)(=O)c1ccc(C(=O)N2C3CCC2CN(c2ncnc4[nH]ccc24)C3)cc1F [Example 131, (3-Fluoro-4-methanesulfonyl-phenyl)-[3-(7H-pyrrolo[2,3-d]pyrimidin-4-yl)-3,8-diaza-bicyclo[3.2.1]oct-8-yl]-methanone] | – |
